Laboratory results taken from patent US5876746A, “Transdermal patch and method for administering 17-deacetyl norgestimate alone or in combination with an estrogen” (Cygnus, Inc., priority 1996, dated 1999).
Where two headings read alike, the source gives them in different places. Each block holds one compound with its values, some of them ahead of it.

Experimental: Mixtures of Duro-Tak 87-2287, 0.26% aluminum acetylacetonate crosslinker, 6% 17-d-Ngm, 1% EE, and various permeation enhancers were prepared. These mixtures were cured and cast as a 100 micron thick (wet) layer onto a 3M 1022 polyester backing and dried. Skin flux tests were carried out on the resulting assemblies according to the procedure described in col. […] HPLC was used to assay for 17-d-Ngm and EE. A Perkin Elmer HPLC system with Diedoarray detector set at 245 nm and 215 nm for 17-d-Ngm and EE, respectively. The mobile phase was 55% water, 45% acetonitrile at a flow rate of 1.0 ml/min. Retention time was 4.5 and 3.0 min. for 17-d-Ngm and EE, respectively.
It was mixed with 17-d-Ngm, EE, 7% PVP (K30 from BASF; dissolved in n-propanol) and various enhancers. These mixtures were cast as a 100 micron thick (wet) layer onto a 3M 1022 polyester backing and dried. Skin flux tests were carried out on the resulting assemblies as in Example 1.
PIB solutions were prepared by dissolving VISTANEX L100, Vistanex LM-MS-LC, and polybutene (Indopol H1900) in hexane. Suspensions of PVP-CLM, 17-d-Ngm, EE and various enhancers in ethanol/ethyl acetate were prepared. The PIB solution was added to the drug suspensions and the resulting mixtures were thoroughly blended. The mixtures were cast as a 10 mil thick (wet) layer onto release liners and dried at 70° C. for 40 min. Saranex 2015 backing was laminated to the subassembly. Skin flux studies were carried out on these assemblies as in Example 1.

Flux (Table 1: 2% TG + 4% OL, Duro-Tak 87-2287, 6% 17-d-Ngm, 1% EE): 0.061 ± 0.007 μg/cm^2 /hr | Flux (Table 1: 2% TG + 10% ML, Duro-Tak 87-2287, 6% 17-d-Ngm, 1% EE): 0.076 ± 0.005 μg/cm^2 /hr | Flux (Table 1: 2% TG + 10% PGML, Duro-Tak 87-2287, 6% 17-d-Ngm, 1% EE): 0.057 ± 0.009 μg/cm^2 /hr | Flux (Table 1: 3% TG, Duro-Tak 87-2287, 6% 17-d-Ngm, 1% EE): 0.043 ± 0.011 μg/cm^2 /hr | Flux (Table 1: 4% TG + 15% ML, Duro-Tak 87-2287, 6% 17-d-Ngm, 1% EE): 0.072 ± 0.002 μg/cm^2 /hr | Flux (Table 2: silicone 4202, 7% PVP, 2% 17-d-Ngm, 0.5% EE, 2% TG + 2% ML): 0.18 ± 0.02 μg/cm^2 /hr | Flux (Table 2: silicone 4202, 7% PVP, 4% 17-d-Ngm, 0.5% EE, 2% ML): 0.074 ± 0.008 μg/cm^2 /hr | Flux (Table 2: silicone 4202, 7% PVP, 4% 17-d-Ngm, 0.5% EE, 5% ML + 1% TG): 0.069 ± 0.007 μg/cm^2 /hr | Flux (Table 2: silicone 4202, 7% PVP, 6% 17-d-Ngm, 0.5% EE, 5% ML + 1% TG): 0.043 ± 0.004 μg/cm^2 /hr | Flux (Table 2: silicone 4202, 7% PVP, 6% 17-d-Ngm, 0.5% EE, 14% (TC:PGML; 80:20)): 0.062 ± 0.01 μg/cm^2 /hr | Flux (Table 2: silicone 4202, 7% PVP, 6% 17-d-Ngm, 0.5% EE, 14% PGML): 0.070 ± 0.01 μg/cm^2 /hr | Flux (Table 2: silicone 4202, 14% PVP, 4% 17-d-Ngm, 0.5% EE, 4% TG + 5% ML): 0.078 ± 0.01 μg/cm^2 /hr | Flux (Table 3: 0.1% EE, 1% 17-d-Ngm, 5% ML, 7% PVP-CLM, 86.9% silicone): 0.05 ± 0.002 μg/cm^2 /hr | Flux (Table 3: 0.1% EE, 1% 17-d-Ngm, 5% ML, 7% PVP-K30, 86.9% silicone): 0.04 ± 0.008 μg/cm^2 /hr | Flux (Table 4: PIB 1:5:4, 0.2% EE, 1.0% 17-d-Ngm, 20% PVP-CLM, 5% AMWAT): 0.05 ± 0.004 μg/cm^2 /hr | Flux (Table 4: PIB 1:5:4, 0.2% EE, 2.0% 17-d-Ngm, 20% PVP-CLM, 3% oleic acid): 0.06 ± 0.002 μg/cm^2 /hr | Flux (Table 4: PIB 1:5:4, 0.2% EE, 2.0% 17-d-Ngm, 20% PVP-CLM, 5% lauramide diethanoiamine): 0.06 ± 0.001 μg/cm^2 /hr | Flux (Table 4: PIB 1:5:4, 0.2% EE, 2.0% 17-d-Ngm, 20% PVP-CLM, 10% PGML): 0.09 ± 0.001 μg/cm^2 /hr | Flux (Table 4: PIB 1:5:4, 0.2% EE, 2.0% 17-d-Ngm, 20% PVP-CLM, 10/0.5% PGML/oleic acid): 0.10 ± 0.001 μg/cm^2 /hr | Flux (Table 4: PIB 1:5:4, 0.2% EE, 3.0% 17-d-Ngm, 20% PVP-CLM, 3% oleic acid): 0.04 ± 0.002 μg/cm^2 /hr | Flux (Table 4: PIB 1:5:4, 0.2% EE, 3.0% 17-d-Ngm, 20% PVP-CLM, 10% PGML): 0.07 ± 0.001 μg/cm^2 /hr | Flux (Table 4: PIB 1:5:4, 0.2% EE, 4.0% 17-d-Ngm, 20% PVP-CLM, 5% lauric acid N,N-dimethyl amide): 0.04 ± 0.001 μg/cm^2 /hr | Flux (Table 4: PIB 1:5:4, 0.3% EE, 4.0% 17-d-Ngm, 20% PVP-CLM, 8% PGIS): 0.10 ± 0.001 μg/cm^2 /hr | Flux (Table 4: PIB 1:5:4, 0.3% EE, 4.0% 17-d-Ngm, 20% PVP-CLM, 8/3% PGML/oleic acid): 0.14 ± 0.001 μg/cm^2 /hr | Flux (Table 4: PIB 1:5:4, 0.3% EE, 4.0% 17-d-Ngm, 20% PVP-CLM, 15% dibutylsebacate): 0.06 ± 0.005 μg/cm^2 /hr | Flux (Table 4: PIB 1:5:4, 0.3% EE, 4.0% 17-d-Ngm, 20% PVP-CLM, 15% ethyl oleate): 0.10 ± 0.001 μg/cm^2 /hr | Flux (Table 4: PIB 1:5:4, 0.3% EE, 4.0% 17-d-Ngm, 20% PVP-CLM, 15% isopropyl palmitate): 0.07 ± 0.001 μg/cm^2 /hr | Flux (Table 4: PIB 2:4:4, 0.3% EE, 4.0% 17-d-Ngm, 20% PVP-CLM, 20% propyl laurate): 0.06 ± 0.002 μg/cm^2 /hr | Flux (Table 6: 70.8% PIB, 20% PVP-CLM, 0.2% EE, 2% 71-d-Ngm, 7% lauryl lactate, skin permeability Low): 0.03 μg/cm^2 /hr | Flux (Table 6: 70.8% PIB, 20% PVP-CLM, 0.2% EE, 2% 71-d-Ngm, 7% lauryl lactate, skin permeability Medium): 0.08 μg/cm^2 /hr | Flux (Table 6: 72.8% PIB, 20% PVP-CLM, 0.2 EE, 2% 17-d-Ngm, 5% myristyl lactate, skin permeability not given): 0.09 μg/cm^2 /hr | Flux (Table 6: 72.85% PIB, 20% PVP-CLM, 0.15% EE, 5% lauryl lactate, skin permeability High): 0.08 μg/cm^2 /hr | Flux (Table 6: 72.85% PIB, 20% PVP-CLM, 0.15% EE, 5% lauryl lactate, skin permeability Low): 0.02 μg/cm^2 /hr | Flux (Table 6: 72.85% PIB, 20% PVP-CLM, 0.15% EE, 5% lauryl lactate, skin permeability Medium): 0.05 μg/cm^2 /hr
Structure (SMILES): C#C[C@]1(O)CC[C@H]2[C@@H]3CCc4cc(O)ccc4[C@H]3CC[C@@]21C [EE, ethinyl estradiol]

Flux (Table 5: 2% 17β-estradiol, 2% 17-deacetynorgetimate, 20% PVP-CLM, 76% PIB adhesive): 0.20 μg/cm^2 /hr
Structure (SMILES): C[C@]12CC[C@@H]3c4ccc(O)cc4CC[C@H]3[C@@H]1CC[C@@H]2O [17β-estradiol]
